Experimental data from ChEMBL document CHEMBL5465560, “Selectivity Literature for EUbOPEN Chemogenomic Library” (2024).

Assays:
[1] = target: T1, Muscarinic acetylcholine receptor M2 (Homo sapiens) (UniProt P08172); test: Selectivity interaction (Panel of kinases, GPCRs, ion channels and transporters (enzymatic assay)) EUB0000223bCl CHRM2
T1 sequence (whole entry): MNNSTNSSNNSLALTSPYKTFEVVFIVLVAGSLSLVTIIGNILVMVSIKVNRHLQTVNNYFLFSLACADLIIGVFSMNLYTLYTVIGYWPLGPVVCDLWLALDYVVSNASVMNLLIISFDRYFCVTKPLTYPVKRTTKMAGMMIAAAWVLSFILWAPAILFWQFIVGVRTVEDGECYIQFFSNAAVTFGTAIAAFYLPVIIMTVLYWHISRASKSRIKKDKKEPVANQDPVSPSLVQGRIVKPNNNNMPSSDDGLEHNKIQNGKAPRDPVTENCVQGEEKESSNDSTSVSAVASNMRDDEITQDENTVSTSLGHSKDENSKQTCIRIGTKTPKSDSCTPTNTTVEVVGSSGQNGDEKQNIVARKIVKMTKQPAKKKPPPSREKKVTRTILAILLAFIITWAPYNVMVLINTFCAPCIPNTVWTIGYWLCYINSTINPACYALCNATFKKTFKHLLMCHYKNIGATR

[2] = target: T2, G protein-coupled receptor kinase 3 (Homo sapiens) (UniProt P35626); test: Selectivity interaction (KinomeScan (DiscoverX)) EUB0000229b ADRBK2; conditions: at 10 µM
T2 sequence (whole entry): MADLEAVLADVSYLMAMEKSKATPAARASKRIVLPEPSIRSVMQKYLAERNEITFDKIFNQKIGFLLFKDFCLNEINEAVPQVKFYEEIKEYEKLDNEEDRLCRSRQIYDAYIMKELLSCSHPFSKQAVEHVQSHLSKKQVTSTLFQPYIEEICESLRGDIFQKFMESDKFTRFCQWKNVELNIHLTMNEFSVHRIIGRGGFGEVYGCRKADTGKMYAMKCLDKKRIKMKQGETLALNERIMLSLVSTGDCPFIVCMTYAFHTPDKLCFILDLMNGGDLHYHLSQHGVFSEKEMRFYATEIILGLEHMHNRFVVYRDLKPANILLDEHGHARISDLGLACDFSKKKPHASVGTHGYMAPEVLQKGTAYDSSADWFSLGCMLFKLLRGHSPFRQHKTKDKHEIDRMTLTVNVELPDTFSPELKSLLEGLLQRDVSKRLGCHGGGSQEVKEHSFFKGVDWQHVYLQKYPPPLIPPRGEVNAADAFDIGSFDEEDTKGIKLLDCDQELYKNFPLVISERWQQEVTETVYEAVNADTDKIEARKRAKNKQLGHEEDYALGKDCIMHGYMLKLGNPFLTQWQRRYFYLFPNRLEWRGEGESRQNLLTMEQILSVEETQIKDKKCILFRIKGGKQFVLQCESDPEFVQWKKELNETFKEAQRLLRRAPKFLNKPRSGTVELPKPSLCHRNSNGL

[3] = target: T3, Mitogen-activated protein kinase kinase kinase 19 (Homo sapiens) (UniProt Q56UN5); test: Selectivity interaction (KinomeScan (DiscoverX)) EUB0001619a MAP3K19; conditions: at 1 µM
T3 sequence (whole entry): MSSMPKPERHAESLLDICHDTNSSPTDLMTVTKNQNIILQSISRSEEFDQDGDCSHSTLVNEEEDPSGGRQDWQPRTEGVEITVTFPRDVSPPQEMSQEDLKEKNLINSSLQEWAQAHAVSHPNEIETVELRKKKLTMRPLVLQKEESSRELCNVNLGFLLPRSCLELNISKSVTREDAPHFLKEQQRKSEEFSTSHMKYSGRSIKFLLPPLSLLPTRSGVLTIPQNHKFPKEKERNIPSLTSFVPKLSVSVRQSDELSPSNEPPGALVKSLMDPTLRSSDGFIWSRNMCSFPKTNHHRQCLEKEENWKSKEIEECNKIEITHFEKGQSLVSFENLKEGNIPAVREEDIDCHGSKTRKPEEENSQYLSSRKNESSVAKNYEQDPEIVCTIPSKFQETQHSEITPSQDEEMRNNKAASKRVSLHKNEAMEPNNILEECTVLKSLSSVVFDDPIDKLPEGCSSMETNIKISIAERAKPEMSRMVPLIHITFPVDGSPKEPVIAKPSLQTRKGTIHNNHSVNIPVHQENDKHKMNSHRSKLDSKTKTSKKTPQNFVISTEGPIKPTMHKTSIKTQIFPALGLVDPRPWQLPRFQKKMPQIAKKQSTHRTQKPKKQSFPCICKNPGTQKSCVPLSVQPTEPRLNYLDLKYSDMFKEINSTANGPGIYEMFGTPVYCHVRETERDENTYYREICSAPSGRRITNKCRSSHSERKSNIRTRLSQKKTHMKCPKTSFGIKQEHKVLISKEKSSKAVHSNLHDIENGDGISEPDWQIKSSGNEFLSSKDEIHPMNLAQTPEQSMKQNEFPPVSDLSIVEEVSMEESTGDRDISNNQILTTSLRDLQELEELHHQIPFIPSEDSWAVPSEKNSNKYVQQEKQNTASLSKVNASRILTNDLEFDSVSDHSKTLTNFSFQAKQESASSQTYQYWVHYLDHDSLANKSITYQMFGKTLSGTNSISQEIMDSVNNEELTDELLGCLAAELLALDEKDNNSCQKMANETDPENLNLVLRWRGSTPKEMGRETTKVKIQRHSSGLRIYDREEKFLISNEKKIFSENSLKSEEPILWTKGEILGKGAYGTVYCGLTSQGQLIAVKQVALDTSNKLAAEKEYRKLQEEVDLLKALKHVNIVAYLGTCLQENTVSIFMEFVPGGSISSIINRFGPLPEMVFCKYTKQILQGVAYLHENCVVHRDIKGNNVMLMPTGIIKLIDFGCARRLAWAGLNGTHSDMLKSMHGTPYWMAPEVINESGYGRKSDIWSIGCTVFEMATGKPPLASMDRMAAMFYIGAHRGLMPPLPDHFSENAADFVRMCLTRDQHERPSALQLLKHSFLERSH

For `COc1cc(C(=O)N2CC[C@@H](O)[C@@H](N)C2)cc2nc(-c3cc4ccccc4n3CC3CC3)n(C)c12`, the pXC50 [1] was under 4.8 M.

`COc1cc(N(C)c2ccnc3ccc(C(F)(F)F)cc23)cc(OC)c1OC` gave a % binding [2] of 43%.

For `N#Cc1cccc(-c2c[nH]c3ncnc(N4CCOCC4)c23)c1`, the % of control [3] was 3.8%.
